Key:
Format in all cases: cell-based, Human
MCF7 cells [1] = test: Mitochondrial mass quantification (MitoTracker Deep Red, flow cytometry); conditions: 50 µM, 5 days, vs vehicle
Protocol: To measure mitochondrial mass, cells were stained with MitoTracker Deep Red (M22426, Invitrogen). Briefly, 2 × 10^5 MCF7 cells per well were seeded in 6-well plates. When cells were attached, mDIVI1 and vehicle treatments were added for 2 days or 5 days in triplicate. Cells were then incubated for 15 min at 37° C with the 10 nM Mitotracker Deep Red probe diluted in PBS ([…], Sigma). All subsequent steps were performed in the dark. Cells were washed in PBS, harvested, and re-suspended in PBS. Mitotracker signal was quantified as mean fluorescent intensity of the viable cell population in a Fortessa flow cytometer (BD Bioscience). Results were analyzed using FlowJo software.

MCF7 cells [2] = test: Total ROS (CM-H2DCFDA, flow cytometry); conditions: 24, 48 hours or 5 days
Protocol: For both assays, 2 × 10^5 MCF7 cells were seeded in 35 mm plates. When cells were attached, either vehicle or mDIVI1 were added to the cells for 24, 48 hours or 5 days in triplicate. Reactive oxygen species (ROS) production was measured using CM-H2DCFDA (C6827, Invitrogen). Briefly, cells were incubated for 20 minutes at 37° C with 1 µM CM-H2DCFDA diluted in PBS and then placed in complete media for 20 minutes at 37° C in the dark, to render the dye fluorescent, according to the manufacturer. Mitochondrial superoxide was measured using MitoSOX Red Mitochondrial Superoxide Indicator (M36008, ThermoFisher Scientific). Briefly, cells were incubated for 10 minutes at 37° C in the dark with 5 µM MitoSOX diluted in PBS, according to the manufacturer. ROS signal and MitoSOX signal was quantified as mean fluorescent intensity of the viable cell population in a Fortessa flow cytometer (BD Bioscience). Results were analysed using FlowJo software.

MCF7 cells [3] = test: Label-free semi-quantitative proteomics; conditions: 10 µM, 48 hours vs vehicle
Protocol: HPLC gradient grade acetonitrile was obtained from Fisher Scientific. Briefly, 2 × 10^6 MCF7 cells were seeded in 15 cm plates until cells were attached. […] As control, vehicle-treated cells were processed in parallel. After 48 hours of treatment, cells were lysed in RIPA buffer (R0278, Sigma) and kept at 4° C for 20 minutes with rotation. Lysates were cleared by centrifugation for 10 minutes at 10,000 × g and supernatants were collected and kept frozen at −80° C. Lysate samples were thawed to room temperature and their concentrations equalised to 1 µg/µL (50 µL volume) with RIPA buffer, and further processed for trypsin digestion by sequential reduction of disulphide bonds with TCEP and alkylation with MMTS. Briefly, 1 µL benzonase (Novagen) was added to the 50 µL aliquot and placed on ice for 15 minutes. The sample was then taken to dryness using a SpeedVac, and resuspended in 22.5 µL trypsin reaction buffer (40 mM ammonium bicarbonate and 9% acetonitrile). One µL of 50 mM TCEP solution was added to each sample, mixed briefly and placed on a heater block at 60° C for 60 minutes. After cooling to room temperature, 0.5 µL of 200 mM MMTS solution was added to each sample and allowed to react for 15 minutes. Trypsin was added in two waves to ensure efficient digestion of the sample. Firstly, 20 µg of sequencing grade trypsin was resuspended in 1800 µL of trypsin reaction buffer; 225 µL of this solution were added to each sample for digestion, and the reactions were left at 37° C overnight with shaking (600 rpm). The following morning, a further aliquot of trypsin was added. Two ml of trypsin reaction buffer was added to […] of sequencing grade trypsin; 250 µL of this solution were added to each of the digest samples from overnight, and the reactions were left at 37° C for 4 hours with shaking (600 rpm). […] The digested solution was diluted in 7.5 mL of acetonitrile containing 0.3% formic acid. PolyhydroxyethylA SPE 12 µm, 300A, 300mg cartridges (obtained from PolyLC) were used for the HILIC procedure. Prior to use, cartridges required an overnight soak in 50 mM formic acid followed by rinsing with water the following day. […] The diluted samples were loaded onto the cartridges and washed with a further 10 mL Buffer A. Finally, peptides were eluted in 1 mL Buffer C (9 parts Buffer B plus 1 part Buffer A) and the samples dried on a Speedvac to remove organic solvent prior to LC-MS/MS analysis. Lyophilised digests were resuspended in 50 µL of 0.1% TFA to give an approximate concentration of 1 µg/µL. One µL injection volumes were used throughout resulting in an on-column peptide loading of approximately 1 µg per injection. Analysis was performed in quintuplicate for each sample. All LC-MS/MS analyses were performed on an LTQ Orbitrap XL mass spectrometer coupled to an Ultimate 3000 RSLCnano system (Thermo Scientific). One µL injection volumes were used throughout and samples loaded directly onto the analytical column, PepMap RSLC C18, 2 µm × 75 µm id × 50 cm (Thermo Scientific). The composition (v/v) of LC buffers were as follows; […] Peptides were loaded directly onto the column at a flow rate of 400 nl/min with an initial mobile phase composition of 1% B. […] The column was then allowed to re-equilibrate to 1% B for a total analysis time of 74 minutes. The mass spectrometer was instructed to perform data dependent acquisition on the top six precursor ions, which were measured in the Orbitrap FTMS detector over the mass range 370–1200 m/z, at a nominal resolution of 60,000. […] Gas-phase fractionation was performed on the five replicate injections such that MS/MS data was collected for precursor ion range 370–494 m/z Injection 1, 494–595 m/z Injection 2, 595–685 m/z Injection 3, 685–817 m/z Injection 4 and 817–1200 m/z Injection 5. Xcalibur raw data files acquired on the LTQ-Orbitrap XL were directly imported into Progenesis LCMS software (Waters Corp) for peak detection and alignment. Data were analysed using the Mascot search engine. […]

MCF7 cells [4] = test: DAPI immunofluorescence staining (binucleated cells); conditions: 50 µM; data not shown

Compound: COc1cc(-n2c(=S)[nH]c3ccccc3c2=O)c(Cl)cc1Cl [mDIVI1, 3-(2,4-Dichloro-5-methoxyphenyl) 2,3-dihydro 2-thioxo-4(1H) quinazolinone]
- Mitotracker Deep Red mean fluorescence intensity (mitochondrial mass) (MCF7 cells [1]): significantly higher
- general oxidative stress levels (total ROS) (MCF7 cells [2]): did not change
- BMP7 expression change (proteomics) (MCF7 cells [3]): -47.17
- CELSR2 expression change (proteomics) (MCF7 cells [3]): −1.6
- EPCAM expression change (proteomics) (MCF7 cells [3]): −1.58
- EphA2 expression change (proteomics) (MCF7 cells [3]): -1.74
- F11 receptor expression change (proteomics) (MCF7 cells [3]): −1.70
- LAMP1 upregulation (proteomics) (MCF7 cells [3]): 2.83
- STAT3 expression change (proteomics) (MCF7 cells [3]): -1.83
- ZO-1 expression change (proteomics) (MCF7 cells [3]): −1.62
- collagen type IV upregulation (proteomics) (MCF7 cells [3]): 1.9 fold
- desmoplakin expression change (proteomics) (MCF7 cells [3]): −4.58
- junction plakoglobin expression change (proteomics) (MCF7 cells [3]): −1.65
- keratin 8 expression change (proteomics) (MCF7 cells [3]): −5.24
- keratin 18 expression change (proteomics) (MCF7 cells [3]): −12.21
- Hexokinase 1 (HK1) change in expression (MCF7 cells [3]; Glycolysis): ↓Infinite
- binucleated cells (failure of cytokinesis) (MCF7 cells [4]): increase in binucleated cells
